Patent US7786141B2 (Vertex Pharmaceuticals Incorporated, priority 2004, dated 2010)
Like-named read-outs stand apart in the source and are kept apart here.

Assays:
[1] = molecular target: T1, M1 muscarinic receptor (Homo sapiens, UniProt P11229); experiment: Functional mobilization of intracellular calcium (FLIPR) in M1-CHO cells; type: cell-based
T1 construct: expressed in transfected cells; host or cells: CHO (M1-CHO)
T1 sequence (P11229 1-460): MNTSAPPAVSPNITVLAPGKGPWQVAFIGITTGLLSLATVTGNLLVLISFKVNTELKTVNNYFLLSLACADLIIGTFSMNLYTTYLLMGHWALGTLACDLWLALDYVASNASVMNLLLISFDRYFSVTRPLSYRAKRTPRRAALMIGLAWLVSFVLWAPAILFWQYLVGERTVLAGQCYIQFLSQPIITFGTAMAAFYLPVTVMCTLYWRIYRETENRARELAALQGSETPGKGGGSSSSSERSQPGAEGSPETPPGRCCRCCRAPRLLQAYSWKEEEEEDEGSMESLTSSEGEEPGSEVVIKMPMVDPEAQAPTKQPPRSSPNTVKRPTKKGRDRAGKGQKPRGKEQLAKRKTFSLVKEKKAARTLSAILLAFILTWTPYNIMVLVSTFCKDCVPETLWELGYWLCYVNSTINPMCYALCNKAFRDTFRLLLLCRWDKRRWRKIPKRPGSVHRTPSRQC
Outline: (§1)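 CHO cells stably expressing human M1 or M4 receptor were loaded with Fluo-3 AM (or Calcium 3 dye) in Hepes-buffered saline, pH 7.4, with 1 mM probenecid, 0.5% final DMSO. Agonist mode: compound added directly; antagonist mode: 15 min preincubation before carbachol at EC80. FLIPR fluorescence recorded 60 sec.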

[2] = molecular target: T2, M4 muscarinic receptor (Homo sapiens, UniProt P08173); experiment: Functional mobilization of intracellular calcium (FLIPR) in M4-CHO cells; type: cell-based
T2 construct: expressed in transfected cells; host or cells: CHO (M4-CHO)
T2 sequence (P08173 1-479): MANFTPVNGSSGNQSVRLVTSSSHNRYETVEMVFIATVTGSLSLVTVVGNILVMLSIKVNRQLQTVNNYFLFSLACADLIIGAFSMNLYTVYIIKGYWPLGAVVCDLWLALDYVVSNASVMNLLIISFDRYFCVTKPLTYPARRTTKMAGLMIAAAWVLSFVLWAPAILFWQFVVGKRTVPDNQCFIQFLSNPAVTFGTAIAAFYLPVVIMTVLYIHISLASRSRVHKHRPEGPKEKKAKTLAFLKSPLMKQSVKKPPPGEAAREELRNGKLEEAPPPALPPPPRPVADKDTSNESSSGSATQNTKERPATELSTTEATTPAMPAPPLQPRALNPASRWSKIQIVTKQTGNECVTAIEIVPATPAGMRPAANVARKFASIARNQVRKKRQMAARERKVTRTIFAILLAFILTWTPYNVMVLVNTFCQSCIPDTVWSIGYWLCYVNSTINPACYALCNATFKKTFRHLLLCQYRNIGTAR
Outline: as §1

[3] = M1-CHO cells, calcium mobilization (FLIPR)
[4] = M1-CHO cells, calcium mobilization (FLIPR), read-out: M1 Efficacy
[5] = M4-CHO cells, calcium mobilization (FLIPR)
[6] = M4-CHO cells, calcium mobilization (FLIPR), read-out: M4 Efficacy
[7] = M1 receptor, calcium mobilization
[8] = M1 receptor, calcium mobilization, read-out: M1 Efficacy
[9] = M4 receptor, calcium mobilization
[10] = M4 receptor, calcium mobilization, read-out: M4 Efficacy
[11] = Table 4, 100% efficacy is the maximum response obtained with the Carbachol control
[12] = Table 4, modulating M1 receptor
[13] = Table 4, modulating M4 receptor
[14] = Table 4, M1 receptor, calcium mobilization (FLIPR)
[15] = Table 4, M4 receptor, calcium mobilization (FLIPR)
[16] = 100% efficacy is the maximum response obtained with the Carbachol control, Table 5

Compound	M1 Activity [1, 7]	Emax [1, 8]	M4 Activity [2, 9]	Emax [2, 10]	Emax [1, 11]	Emax [2, 11]	other results
COCCOC(=O)N1CC2(CCN(C3CC4CCC(C3)N4C(=O)OC(C)C)CC2)c2cc(F)ccc21 (stereo not drawn) [compound 422]							EC50 [1, 3]: < 100 nM; Emax [1, 4]: < 65%; EC50 [2, 5]: > 1000 nM; Emax [2, 6]: < 65%
COCCOC(=O)N1CC2(CCN(C3CC4CCC(C3)N4C(=O)O[C@H]3CCOC3)CC2)c2cc(F)ccc21 (stereo partly drawn) [compound 80]	xx (activity was measured to be between 0.1 μM and 1.0 μM)	< 65%	xx (activity was measured to be between 0.1 μM and 1.0 μM)	< 65%			
O=C(OC1CCC1)N1C2CCC1CC(N1CCC3(CC1)C(=O)Nc1ccccc13)C2 (stereo not drawn) [compound 217]	xx (activity was measured to be between 0.1 μM and 1.0 μM)	< 65%	x (activity was measured to be greater than 1.0 μM)	< 65%			
CCCC1CCC(N2CCC3(CC2)CNc2ccccc23)CC1 (stereo not drawn) [compound 334]	x (activity was measured to be greater than 1.0 μM)	< 65%	x (activity was measured to be greater than 1.0 μM)	< 65%			
CCCOC(=O)N1CCC(CN2CCC3(CC2)C[C@H](NC(C)=O)c2ccccc23)CC1 [compound 36]	xxx (activity was measured to be less than 0.1 μM)	65 to 85%	xx (activity was measured to be between 0.1 μM and 1.0 μM)	> 85%			
CCOC(=O)N1CCC(N2CCC3(CC2)CN(CC(=O)CC)c2ccc(F)cc23)CC1 [compound 303]	xx (activity was measured to be between 0.1 μM and 1.0 μM)	> 85%	x (activity was measured to be greater than 1.0 μM)	< 65%			
CC#CCOC(=O)N1CC[C@H](CN2CCC3(CC2)CN(C(C)=O)c2cccc(C)c23)C1 [compound 445]					25 to 100%	25 to 100%	M1 Activity [1, 12]: xxx (activity was measured to be less than 2.0 μM); M4 Activity [2, 13]: xxx (activity was measured to be less than 2.0 μM)
CCOC(=O)N1CCC(N2CCC3(CC2)CN(C(C)=O)c2ccc(C#N)cc23)CC1 [compound 862]					25 to 100%	25 to 100%	M1 Activity [1, 14]: xxx (activity was measured to be less than 2.0 μM); M4 Activity [2, 15]: xxx (activity was measured to be less than 2.0 μM)
CC(C)OC(=O)N1CCCC(N2CCC3(CC2)CN(C(=O)N(C)C)c2ccc(F)cc23)CC1 (stereo not drawn) [compound 704]					25 to 100%	25 to 100%	M1 Activity [1, 12]: xxx (activity was measured to be less than 2.0 μM); M4 Activity [2, 13]: xxx (activity was measured to be less than 2.0 μM)
Clc1ccc2c(c1)C1(CCN(C3CC4CCC(C4)C3)CC1)CN2 (stereo not drawn) [compound 85]	xxx (activity was measured to be less than 0.1 μM)	65 to 85%	xx (activity was measured to be between 0.1 μM and 1.0 μM)	65 to 85%			
COc1ccc([C@@H](C)N[C@H]2CC3(CCN(CC4CC5C=CC4C5)CC3)c3cc(Cl)ccc32)cc1 (stereo partly drawn) [compound 569]					25 to 100%	25 to 100%	M1 Activity [1, 12]: xx (activity was measured to be between 2.0 μM and 5.0 μM); M4 Activity [2, 13]: xx (activity was measured to be between 2.0 μM and 5.0 μM)
CCOC(=O)N1CCC(CN2CCC3(CC2)CN(C(C)=O)c2ccc(C(F)(F)F)cc23)CC1 [compound 994]					25 to 100%	25 to 100%	M1 Activity [1, 14]: xxx (activity was measured to be less than 2.0 μM); M4 Activity [2, 15]: xxx (activity was measured to be less than 2.0 μM)
CC#CCOC(=O)N1CCC(N2CCC3(CC2)CN(C(C)=O)c2cccc(C)c23)CC1 [compound 526]					25 to 100%	< 25%	M1 Activity [1, 12]: xxx (activity was measured to be less than 2.0 μM); M4 Activity [2, 13]: x (activity was measured to be greater than 5.0 μM)
Fc1ccc2c(c1)C1(CCN(C3CCCCC3)CC1)CN2 [compound 325]	x (activity was measured to be greater than 1.0 μM)	65 to 85%	x (activity was measured to be greater than 1.0 μM)	< 65%			
CCC(=O)N[C@H]1CC2(CCN([C@@H]3C[C@@H]4CC[C@@H]3C4)CC2)c2ccccc21 [compound 490]					25 to 100%	> 100%	M1 Activity [1, 12]: x (activity was measured to be greater than 5.0 μM); M4 Activity [2, 13]: xxx (activity was measured to be less than 2.0 μM)
CC(=O)N1CC2(CCN(C3CCN(C(=O)OC(C)C)CC3)CC2)c2cc(F)ccc21 [compound 269]	xxx (activity was measured to be less than 0.1 μM)	65 to 85%	xxx (activity was measured to be less than 0.1 μM)	> 85%			
CCOC(=O)N1C2CCC1CC(N1CCC3(CC1)CN(C(=O)c1snnc1C)c1ccc(F)cc13)C2 (stereo not drawn) [compound 59]	xxx (activity was measured to be less than 0.1 μM)	< 65%	xx (activity was measured to be between 0.1 μM and 1.0 μM)	65 to 85%			
C#CCOC(=O)N1CC[C@H](CN2CCC3(CC2)CN(C(=O)N(C)C)c2ccc(F)cc23)C1 [compound 443]					> 100%	> 100%	M1 Activity [1, 12]: xxx (activity was measured to be less than 2.0 μM); M4 Activity [2, 13]: xxx (activity was measured to be less than 2.0 μM)
CC(=O)N[C@H]1CCC2(CCN(C[C@H]3C[C@H]4C=CC3C4)CC2)c2ccccc21 [compound 652]					25 to 100%	25 to 100%	M1 Activity [1, 12]: xxx (activity was measured to be less than 2.0 μM); M4 Activity [2, 13]: xxx (activity was measured to be less than 2.0 μM)
CN(C)C(=O)N1CC2(CCN(C3CCN(c4nccs4)CC3)CC2)c2cc(F)ccc21 [compound 1034]							Emax [1, 16]: 25 to 100%; EC50 ([1]; CHO cells expressing M1, calcium mobilization, Table 5): < 2000 nM; Emax [2, 16]: 25 to 100%; EC50 ([2]; CHO cells expressing M4, calcium mobilization, Table 5): < 2000 nM
C1=C[C@H]2C[C@H]1C[C@H]2CN1CCC2(CCc3ccccc32)CC1 [compound 313]	x (activity was measured to be greater than 1.0 μM)	< 65%	x (activity was measured to be greater than 1.0 μM)	< 65%			
CC(C)OC(=O)N1C2CCC1CC(N1CCC3(CC1)CN(C(=O)O[C@@H]1CCOC1)c1ccc(F)cc13)C2 (stereo partly drawn) [compound 402]							EC50 [1, 3]: 100 to 1000 nM; Emax [1, 4]: 65 to 85%; EC50 [2, 5]: > 1000 nM; Emax [2, 6]: < 65%
CCOC(=O)N1CCC(N2CCC3(CC2)CN(C2CCC(=O)CC2)c2ccc(F)cc23)CC1 [compound 951]					25 to 100%	25 to 100%	M1 Activity [1, 14]: xxx (activity was measured to be less than 2.0 μM); M4 Activity [2, 15]: xxx (activity was measured to be less than 2.0 μM)
Fc1ccc2c(c1)C1(CCN(C3CCOCC3)CC1)CN2 [compound 299]	x (activity was measured to be greater than 1.0 μM)	65 to 85%	x (activity was measured to be greater than 1.0 μM)	65 to 85%			
CN(C)C(=O)N1CC2(CCN(C3CCN(C(=O)c4cnccn4)CC3)CC2)c2cc(F)ccc21 [compound 531]					< 25%	< 25%	M1 Activity [1, 12]: x (activity was measured to be greater than 5.0 μM); M4 Activity [2, 13]: x (activity was measured to be greater than 5.0 μM)
CCCOC(=O)N1CCCC(N2CCC3(CC2)CN(C(C)=O)c2ccc(F)cc23)CC1 (stereo not drawn) [compound 266]	x (activity was measured to be greater than 1.0 μM)	< 65%	x (activity was measured to be greater than 1.0 μM)	< 65%			
CCOC(=O)N1C2CCC1CC(N1CCC3(CC[C@H](N4CCCC4=O)c4ccccc43)CC1)C2 (stereo partly drawn) [compound 1014]					25 to 100%	25 to 100%	M1 Activity [1, 14]: xxx (activity was measured to be less than 2.0 μM); M4 Activity [2, 15]: xxx (activity was measured to be less than 2.0 μM)
